Results published in the NIST ThermoML archive (doi:10.1021/je200477s).

Assay: wn = mass fraction of the nth substance listed
Details: 101 kPa, Liquid, Pycnometric method

CCCCn1cc[n+](C)c1.COS(=O)(=O)[O-] [1-butyl-3-methylimidazolium methyl sulfate] + O
mass density [kg/m3]
Details | w1 = 0.1501 | w1 = 0.2002 | w1 = 0.2991 | w1 = 0.4993 | w1 = 0.6519 | w1 = 0.8012 | w1 = 0.8701 | w1 = 0.9325 | w1 = 1
293.15 K | 1025.8 | 1035.9 | 1056.1 | 1100.2 | 1134.9 | 1169.4 | 1184.8 | 1198.2 | 1211.7
295.15 K | 1025.1 | 1035.2 | 1055.2 | 1099 | 1133.5 | 1168 | 1183.4 | 1196.8 | 1210.4
297.15 K | 1024.4 | 1034.4 | 1054.3 | 1097.7 | 1132.2 | 1166.6 | 1182.1 | 1195.5 | 1209.1
299.15 K | 1023.7 | 1033.6 | 1053.3 | 1096.5 | 1130.7 | 1165.2 | 1180.7 | 1194.1 | 1207.7
301.15 K | 1022.9 | 1032.8 | 1052.3 | 1095.2 | 1129.4 | 1163.8 | 1179.3 | 1192.8 | 1206.4
303.15 K | 1022.2 | 1031.9 | 1051.3 | 1093.9 | 1128 | 1162.4 | 1177.9 | 1191.4 | 1205.1

O [water] + CCCCn1cc[n+](C)c1.COS(=O)(=O)[O-]
w2 = 0
Details | mass density [kg/m3]
293.15 K | 998.3
295.15 K | 997.9
297.15 K | 997.4
299.15 K | 996.9
301.15 K | 996.3
